Laboratory results as given in PubChem BioAssay (NCI).
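The compound was tested at five concentrations on cells cultured in 96-well plates, with a 48-hour exposure period. GI50 marks 50% less growth. TGI: total growth inhibition.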

Legend:
Experiment in all cases: growth of human tumour cells (NCI), 48 h
[1] = system: MDA-MB-435
[2] = system: MDA-N
[3] = system: DMS 114 small cell lung
[4] = system: DMS 273 small cell lung
[5] = system: KM20L2 colon
[6] = system: LXFL 529 NSCLC
[7] = system: M19-MEL melanoma
[8] = system: RXF-631 renal
[9] = system: HOP-18 NSCLC

Q: What does the source list for `CCCCCC(=O)OC[n+]1ccc(-c2c(COC(=O)NC(C)C)c(COC(=O)NC(C)C)c3n2CCC3)cc1`?
A: TGI [1]: > 100 µM; TGI [2]: > 100 µM

Q: What does the source list for `CCC1(O)CC(c2ccccc2)N(C)C(c2ccccc2)C1` (stereo unspecified)?
A: TGI [3]: > 100 µM; TGI [4]: > 100 µM; TGI [5]: > 100 µM; TGI [6]: > 100 µM; TGI [7]: > 100 µM; TGI [8]: > 100 µM

Q: For `CCOc1ccc(-n2cc(-c3ccc(N(C)C)cc3)[n+]3c2CCCCC3)cc1`, which GI50 [1] is on record?
A: The GI50 was 0.217 µM.

Q: What about the TGI [1] of the same compound?
A: The TGI was 14.4 µM.

Q: `O=C1OC(/C=C/c2ccccc2)C(=O)C1=O` (stereo unspecified) was tested. Which TGI [4] did it give?
A: The TGI was > 100 µM.

Q: And the TGI [9]?
A: Its TGI is > 100 µM.

Q: And the TGI [5]?
A: Its TGI is > 100 µM.

Q: And the TGI [6]?
A: Its TGI is > 100 µM.

Q: What about the TGI [7] of the same compound?
A: The TGI was > 100 µM.

Q: Which results are given for `c1ccc2c(c1)-c1nc3ccccc3cc1C2N1CCOCC1` (stereo unspecified)?
A: TGI [1]: > 100 µM; TGI [2]: > 100 µM

Q: Which TGI [3] does the source give for `CN=C(NC#N)NCc1ccccc1` here?
A: Its TGI is > 100 µM.

Q: And the TGI [4]?
A: Its TGI is > 100 µM.

Q: What about the TGI [5] of the same compound?
A: Its TGI is > 100 µM.

Q: And the TGI [6]?
A: Its TGI is > 100 µM.

Q: And the TGI [7]?
A: Its TGI is > 100 µM.

Q: `COc1ccc(/C=C2\CCC(CN(C)C)C2=O)cc1` (stereo unspecified) was tested. Which TGI [3] did it give?
A: The TGI was 21.6 µM.

Q: And the TGI [9]?
A: Its TGI is 19.9 µM.

Q: And the TGI [5]?
A: The TGI was 36.8 µM.

Q: And the TGI [6]?
A: The TGI was 4.17 µM.

Q: And the TGI [7]?
A: Its TGI is 26.6 µM.

Q: What about the TGI [1] of the same compound?
A: Its TGI is 3.63 µM.

Q: And the TGI [2]?
A: The TGI was 9.09 µM.

Q: `Nc1c(S(=O)(=O)O)cc2c(c1Cl)C(=O)c1ccccc1C2=O` was tested. Which GI50 [1] did it give?
A: Its GI50 is > 100 µM.

Q: What about the TGI [1] of the same compound?
A: The TGI was > 100 µM.

Q: `COc1ccc(/C=N/C2=C(C#N)C(c3ccccc3)c3ccc4ccccc4c3O2)cc1` (stereo unspecified) was tested. Which GI50 [1] did it give?
A: The GI50 was 0.0962 µM.

Q: And the TGI [1]?
A: Its TGI is 0.353 µM.

Q: For `O=C(Nc1ccc(-n2cc(-c3ccncc3)c(-c3ccc(Cl)c(O)c3)n2)cc1)c1ccc(Cl)c(C(F)(F)F)c1`, which GI50 [1] is on record?
A: The GI50 was 1.45 µM.

Q: What about the TGI [1] of the same compound?
A: Its TGI is 13.1 µM.

Q: What does the source list for `COc1ccc(/C=C/c2cnnc3ccccc23)cc1OC`?
A: TGI [1]: > 10 µM; TGI [2]: > 10 µM

Q: With `COc1cc2c(cc1OC)-c1c(c3ccc([N+](=O)[O-])cc3c(=O)n1CCCBr)C2=O` as the compound, how does the GI50 [1] read?
A: The GI50 was 25.4 µM.

Q: And the TGI [1]?
A: The TGI was > 100 µM.

Q: Which results are given for `COc1ccc2c(c1)cn1c3ccc(OC)cc3[nH]c(=O)c21`?
A: GI50 [1]: < 0.01 µM; TGI [1]: 0.0116 µM

Q: `COc1cc(Nc2nccc(-c3cnn4ncccc34)n2)cc(OC)c1` was tested. Which GI50 [1] did it give?
A: The GI50 was 0.07 µM.

Q: And the TGI [1]?
A: The TGI was 0.859 µM.

Q: How did the GI50 [1] turn out when `CCc1cc(Cc2cc(CC)cc(C(C)(C)C)c2O)c(O)c(C(C)(C)C)c1` was run?
A: The GI50 was 2.35 µM.

Q: And the TGI [1]?
A: The TGI was 7.16 µM.

Q: Which TGI [3] does the source give for `O=C(c1ccccc1)C(c1ccccc1)C1(O)C(=O)Nc2ccc(Br)cc21` (stereo unspecified) here?
A: Its TGI is 50.5 µM.

Q: What about the TGI [4] of the same compound?
A: The TGI was > 100 µM.

Q: And the TGI [5]?
A: Its TGI is > 100 µM.

Q: What about the TGI [6] of the same compound?
A: The TGI was 53.1 µM.

Q: And the TGI [7]?
A: The TGI was 30.6 µM.

Q: What about the TGI [8] of the same compound?
A: The TGI was > 100 µM.

Q: What does the source list for `CC(NC(=O)C1(N)CCCC1)C(=O)O` (stereo unspecified)?
A: TGI [1]: > 100 µM; TGI [2]: > 100 µM

Q: Which results are given for `Nc1c2c(c(O)c3c1=C(CO)C=N3)=NCCS2=O` (stereo unspecified)?
A: GI50 [1]: 1.86 µM; TGI [1]: 3.41 µM

Q: Which TGI [1] does the source give for `COc1cc(C2C(Cl)C(=O)N2NC(=O)c2ccccc2O)cc(OC)c1OC` (stereo unspecified) here?
A: The TGI was > 10 µM.

Q: What does the source list for `Fc1cccc(C2SCc3nc4ccccc4n32)c1` (stereo unspecified)?
A: TGI [3]: > 100 µM; TGI [4]: > 100 µM; TGI [6]: > 100 µM; TGI [7]: > 100 µM; TGI [8]: > 100 µM

Q: With `COC(=O)c1cccc(COc2ccc([N+](=O)[O-])cc2Cl)c1` as the compound, how does the TGI [1] read?
A: Its TGI is > 100 µM.

Q: `O=C(O)c1cccc(F)c1C(=O)c1ccc2ccccc2c1` was tested. Which TGI [1] did it give?
A: Its TGI is > 100 µM.

Q: And the TGI [2]?
A: Its TGI is > 100 µM.

Q: Which results are given for `Cc1cc2c(C=O)[nH]nc2c(C#N)c1C`?
A: TGI [3]: 99.3 µM; TGI [4]: > 100 µM; TGI [5]: > 100 µM; TGI [6]: > 100 µM; TGI [7]: > 100 µM; TGI [8]: > 100 µM

Q: Which results are given for `O=CN/C=C\c1cc(O)ccc1O`?
A: TGI [3]: 52.3 µM; TGI [4]: > 41.1 µM; TGI [9]: 30.7 µM; TGI [5]: > 62.4 µM; TGI [6]: 22.8 µM; TGI [7]: 40.2 µM

Q: With `N=C(N)c1ccc(-c2ccc(-c3ccccc3)o2)o1` as the compound, how does the GI50 [1] read?
A: Its GI50 is 0.999 µM.

Q: And the TGI [1]?
A: The TGI was 2.39 µM.

Q: For `O=c1c2ccc(Br)cc2nc(-c2ccccc2)n1NC1OC(CO)C(O)C(O)C1O` (stereo unspecified), which TGI [3] is on record?
A: The TGI was > 100 µM.

Q: And the TGI [4]?
A: Its TGI is > 100 µM.

Q: And the TGI [9]?
A: Its TGI is > 100 µM.

Q: And the TGI [5]?
A: The TGI was > 100 µM.

Q: What about the TGI [6] of the same compound?
A: The TGI was > 100 µM.

Q: What about the TGI [7] of the same compound?
A: The TGI was > 100 µM.

Q: How did the TGI [1] turn out when `COc1ccccc1NC(=O)C(=O)C(C#N)CC(C)(C)C=O` (stereo unspecified) was run?
A: Its TGI is > 100 µM.

Q: And the TGI [2]?
A: The TGI was > 100 µM.

Q: For `OC1/C(=C/c2ccccc2)CNC/C1=C\c1ccccc1` (stereo unspecified), which TGI [3] is on record?
A: Its TGI is > 100 µM.

Q: And the TGI [4]?
A: The TGI was > 100 µM.

Q: What about the TGI [9] of the same compound?
A: The TGI was > 100 µM.

Q: And the TGI [5]?
A: The TGI was > 100 µM.

Q: What about the TGI [6] of the same compound?
A: The TGI was > 100 µM.

Q: What about the TGI [7] of the same compound?
A: Its TGI is > 100 µM.

Q: For `O=P1(NCCCl)OCCC(OO)N1CCCl` (stereo unspecified), which TGI [3] is on record?
A: The TGI was > 100 µM.

Q: What about the TGI [4] of the same compound?
A: Its TGI is > 100 µM.

Q: What about the TGI [9] of the same compound?
A: Its TGI is > 100 µM.

Q: What about the TGI [5] of the same compound?
A: The TGI was > 100 µM.

Q: What about the TGI [7] of the same compound?
A: Its TGI is > 100 µM.

Q: And the TGI [1]?
A: The TGI was > 100 µM.

Q: And the TGI [2]?
A: Its TGI is > 100 µM.

Q: Which results are given for `CN(CC(=O)O)Cc1c[nH]c2ccccc12`?
A: TGI [1]: > 100 µM; TGI [2]: > 100 µM
